The term inhibition denotes the relative decrease from the control value, in per cent. The IC50 is the concentration that gives 50% inhibition. As a reminder, the Ki is a dissociation constant, usually derived from enzyme kinetics or from competition with a known ligand.

Assay [1] concerns the target T1, Bifunctional epoxide hydrolase 2 (Homo sapiens) (UniProt P34913).
T1 sequence (whole entry): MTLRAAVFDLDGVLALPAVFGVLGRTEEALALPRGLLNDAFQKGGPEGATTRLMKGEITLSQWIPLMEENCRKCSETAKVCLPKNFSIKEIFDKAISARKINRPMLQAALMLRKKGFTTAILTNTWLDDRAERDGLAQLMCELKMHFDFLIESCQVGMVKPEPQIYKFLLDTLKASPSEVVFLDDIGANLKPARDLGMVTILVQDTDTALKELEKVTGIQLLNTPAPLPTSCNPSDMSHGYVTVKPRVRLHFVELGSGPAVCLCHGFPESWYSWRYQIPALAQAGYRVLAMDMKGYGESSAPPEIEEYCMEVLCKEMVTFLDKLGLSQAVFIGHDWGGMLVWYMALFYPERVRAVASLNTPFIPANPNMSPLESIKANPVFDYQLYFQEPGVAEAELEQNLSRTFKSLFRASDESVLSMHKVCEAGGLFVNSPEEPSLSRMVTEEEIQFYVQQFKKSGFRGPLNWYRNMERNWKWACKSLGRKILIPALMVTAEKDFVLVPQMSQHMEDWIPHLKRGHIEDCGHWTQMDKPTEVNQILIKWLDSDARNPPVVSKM
Kind of assay: Inhibition of sEH (unknown origin) using PHOME as substrate assessed as formation of 6-methoxy-2-naphthaldehyde at 100 uM measured during 1 hr by fluorescence photometric analysis relative to control.

Assay [2] deals with T2, Bifunctional epoxide hydrolase 2 (Homo sapiens, UniProt P34913).
T2 sequence (P34913 whole entry): T1 sequence (whole entry)
The assay can be described thus: Inhibition of sEH (unknown origin) using PHOME as substrate assessed as formation of 6-methoxy-2-naphthaldehyde measured during 1 hr by fluorescence photometric analysis.

Assay [3] concerns the target T2, Bifunctional epoxide hydrolase 2. The assay can be described thus: Non-competitive inhibition of sEH (unknown origin) using PHOME as substrate assessed as formation of 6-methoxy-2-naphthaldehyde measured during 30 mins by Dixon plot analysis.
Assay [4] deals with T1, Bifunctional epoxide hydrolase 2 (Homo sapiens). The assay can be described thus: Non-competitive inhibition of sEH (unknown origin) using PHOME as substrate assessed as formation of 6-methoxy-2-naphthaldehyde measured during 30 mins by Lineweaver-Burk plot analysis.
In assay [5] the target is T2, Bifunctional epoxide hydrolase 2. Kind of assay: Mixed-type inhibition of sEH (unknown origin) using PHOME as substrate assessed as formation of 6-methoxy-2-naphthaldehyde measured during 30 mins by Dixon plot analysis.
Assay [6] addresses T1, Bifunctional epoxide hydrolase 2 (Homo sapiens). The assay can be described thus: Mixed-type inhibition of sEH (unknown origin) using PHOME as substrate assessed as formation of 6-methoxy-2-naphthaldehyde measured during 30 mins by Lineweaver-Burk plot analysis.

Calls of active or inactive are those of the source. The rule behind the calls is not given here.

In the case of `C[C@@H]1O[C@@H](OCc2cc(O)c3c(c2)[C@H]([C@@H]2OC[C@@H](O)[C@H](O)[C@H]2O)c2cccc(O)c2C3=O)[C@H](O)[C@H](O)[C@H]1O`, the inhibition in assay [1] came to 87%. Also, the IC50 in assay [2] was found to be 13.8 µM. Also, the Ki in assay [3] was 0.8 µM. In addition, in assay [4], the inhibition entry is “Active”.
For `C[C@@H]1O[C@@H](OCc2cc(O)c3c(c2)[C@H]([C@@H]2O[C@H](CO)[C@@H](O)[C@H](O)[C@H]2O)c2cccc(O)c2C3=O)[C@H](O)[C@H](O)[C@H]1O`, the inhibition in assay [1] was determined as 86.9%. The IC50 in assay [2] amounted to 20.2 µM. Also, the Ki in assay [5] was determined as 2 µM. Moreover, the inhibition entry in assay [6] is “Active”.
On to `O=C1c2cc(CO)cc(O)c2C(=O)c2c1ccc([C@]1([C@@H]3O[C@H](CO)[C@@H](O)[C@H](O)[C@H]3O)c3cccc(O)c3C(=O)c3c(O)cc(CO)cc31)c2O`, for which the inhibition in assay [1] worked out at 93.1%. For the same molecule, the 50% inhibitory concentration (IC50) in assay [2] was 4.1 µM. In assay [3], the Ki is 15.5 µM. In addition, in assay [4], the inhibition entry is “Active”.
With `O=C1c2c(O)cccc2[C@@H]([C@@H]2O[C@H](CO)[C@@H](O)[C@H](O)[C@H]2O)c2cc(CO)cc(O)c21`, the inhibition in assay [1] is 62.8%. Further, the IC50 in assay [2] was determined as 41.1 µM. Also, the inhibitory constant (Ki) in assay [5] came to 27.8 µM. The inhibition result in assay [6] was “Active”.
Turning to `Cc1cc(O)c2c(c1)[C@H]([C@@H]1O[C@H](CO)[C@@H](O)[C@H](O)[C@H]1O)c1cccc(O)c1C2=O`, in assay [1], the inhibition came to 90.5%. Further, the IC50 in assay [2] is 15.6 µM. Besides, the Ki in assay [5] was 0.2 µM. In assay [6], the inhibition entry was “Active”.
As for `O=C1c2cccc(O)c2C(=O)c2c(O)cc(CO)cc21` [ALOE-EMODIN], in assay [1], the inhibition came out at 79.9%. For the same molecule, in assay [2], the IC50 came out at 26.8 µM. For the same molecule, in assay [3], the Ki amounted to 52.2 µM. Besides, the inhibition entry in assay [4] was “Active”.
Regarding `O=C1c2c(O)cccc2C([C@@H]2O[C@H](CO)[C@@H](O)[C@H](O)[C@H]2O)c2cc(CO)cc(O)c21` (some centres not stated) [ALOIN], the inhibition in assay [1] was determined as 73.9%. Further, the IC50 in assay [2] came out at 37.4 µM. In addition, the Ki in assay [5] came out at 57.3 µM. Moreover, the inhibition result in assay [6] is “Active”.
As for `C[C@@H]1O[C@@H](OCc2cc(O)c3c(c2)[C@](O)([C@@H]2O[C@H](CO)[C@@H](O)[C@H](O)[C@H]2O)c2cccc(O)c2C3=O)[C@H](O)[C@H](O)[C@H]1O`, the inhibition in assay [1] turned out to be 109%. Further, the IC50 in assay [2] worked out at 12.5 µM. Besides, the Ki in assay [5] was found to be 10.4 µM. The inhibition result in assay [6] was “Active”.

(Values after ChEMBL document CHEMBL3616406, “Soluble epoxide hydrolase inhibitory activity of anthraquinone components from Aloe” (Bioorg Med Chem, 2015).)
